The assay can be described thus: Onset of egg laying and egg weight in hens treated via drinking water, Example 3. The assay is classed as in vivo. The method, then: The end of the development of the reproductive organ of laying hens starts on the age of 15 weeks and continues during 7 weeks. 10 laying hens were treated with L-arginine via drinking water from the age of 15 weeks till the age of 21 weeks and 10 laying hens were used as a control group. L-arginine was dosed at 15 mg per kg weight per day. L-arginine free base or a L-arginine salt such as hydrochloride may be given daily in a dose of about 5 - 200 mg up to 5 to about 1000 mg per kg bodyweight per day. Light schemes were taken into account: 8 hours light at the age of 15 and 16 weeks old, 9 hours at 17 weeks, 10 hours at 18 weeks, 11 hours at 19 weeks, 12 hours at 20 weeks and 13 hours at 21 weeks old. The treatment with L-arginine was started on the age of 15 weeks. After 40 days of treatment, 3 of 10 chickens treated with L-arginine started laying while one chicken of the control group started laying four days later (Fig. 5). It is unexpected that the onset of egg-laying is earlier than in the control group which is a commercially important aspect of the present invention. The average weight of the eggs (number of eggs ≥ 3) was above 50 g after 46 days in the treated group while in the control group after 54 days the average weight of at least 3 eggs was above 50 g (Fig 6). Again this improvement is unexpected and is of commercial value.

From patent EP1234508A1, “Antiprotozoal methods, compositions and feedstuffs” (UNIVERSITEIT GENT, priority 2001, dated 2002) come the findings set out here.

As to `N=C(N)NCCCC(N)C(=O)O` [L-arginine, 2-amino-5-guanidinovaleric acid], the chickens started laying (after 40 days of treatment, 15 mg per kg weight per day via drinking water from the age of 15 weeks, Fig. 5) is recorded as 3 of 10. Under “after 46 days in the treated group, 15 mg per kg weight per day via drinking water, Fig. 6”, the “average weight of the eggs (number of eggs ≥ 3)” value is “above 50 g”.
